Measurements: patent US12209074B2, “SHP2 phosphatase allosteric inhibitor” (BEIJING SHENOGEN PHARMA GROUP LTD., priority 2019, dated 2025)

The compounds below were run on Human non-small cell lung cancer NCI-H358 (assay: Cell proliferation assay (CellTiter-Glu) in NCI-H358). Details: 5 days, NCI-H358 cells, cell viability by CellTiter-Glu, compound 0.3 nM-2 μM, medium and compound renewed after 3 days.
Type: cell-based
Protocol: Cell proliferation inhibition screening method was established by CellTier-Glu® test reagent from Promega.
Human non-small cell lung cancer NCI-H358 was cultured by RPMI-1640 (Gibco®) medium with 10% fetal bovine serum (Gibco®) at 37° C., 95% air and 5% CO2, in 25 cm^2 or 75 cm^2 plastic culture bottle ((Nunc®) and passaged 2-3 times a week.
The cells were seeded on the 96 well cell culture plate (Nunc®) at the density of 2*10^3/well, 90 μL/well, and cultured at 37° C., 95% air and 5% CO2. The compound to be tested was added 24 hours later: the compound was diluted 3 times with DMSO from the concentration of 2 mM compound (dissolved in DMSO). […] 10 μL of the compound diluted by culture medium was added into the culture plate seeded with cells. The final concentration of DMSO in cell culture medium was 0.1%, and the final concentration of test compound was 0.3 nM-2 μM. The cells were incubated at 37° C. for 3 days. The culture medium was substituted with 90 μL/well fresh complete medium. According to the above diluting method of compounds, the compound to be tested was added.
After 5 days, cell viability was tested by CellTiter-Glu (Promega) kit, and finally, the semi-inhibitory concentration of compounds on cell proliferation, i.e. IC50 was calculated by Prism program.

| IC50 [µM] | SMILES |
| --- | --- |
| 0.273 | Cc1nc(N2CCC3(CC2)Cc2ccc(NS(C)(=O)=O)cc2[C@H]3N)c(CO)nc1-c1cccc(Cl)c1Cl [Compound 3, (S)—N-(1-amino-1′-(5-(2,3-dichlorophenyl)-3-(hydroxymethyl)-6-methylpyrazin-2-yl)-1,3-dihydrospiro[indene-2,4′-piperidin]-6-yl) methanesulfonamide] |
| 0.817 | Cc1nc(N2CCC3(CC2)Cc2ccc(C(C)(C)O)cc2[C@H]3N)c(CO)nc1-c1cccc(Cl)c1Cl [Compound 4, (S)-2-(1-amino-1′-(5-(2,3-dichlorophenyl)-3-(hydroxymethyl)-6-methylpyrazin-2-yl)-1,3-dihydrospiro[indene-2,4′-piperidin]-6-yl)propan-2-01] |
| 0.098 | Cc1nc(N2CCC3(CC2)Cc2ccc(C(N)=O)cc2[C@H]3N)c(CO)nc1-c1cccc(Cl)c1Cl [Compound 5, (S)-1-amino-1′-(5-(2,3-dichlorophenyl)-3-(hydroxymethyl)-6-methylpyrazin-2-yl)-1,3-dihydrospiro[indene-2,4′-piperidine]-6-carboxamide] |
| > 1 | Cc1nc(N2CCC3(CC2)Cc2ccccc2[C@H]3N)c(C(N)=O)nc1-c1cccc(Cl)c1Cl [Compound 6, (S)-3-(1-amino-1,3-dihydrospiro[indene-2,4′-piperidin]-1′-yl)-6-(2,3-dichlorophenyl)-5-methylpyrazine-2-carboxamide] |
| > 1 | Cc1nc(N2CCC3(CC2)Cc2ccccc2[C@H]3N)c(C#N)nc1-c1cccc(Cl)c1Cl [Compound 7, (S)-3-(1-amino-1,3-dihydrospiro[indene-2,4′-piperidin]-1′-yl)-6-(2,3-dichlorophenyl)-5-methylpyrazine-2-carbonitrile] |
| > 1 | Cc1nc(N2CCC3(CC2)Cc2cccc(C#N)c2[C@H]3N)c(CO)nc1-c1cccc(Cl)c1Cl [Compound 8, (S)-1-amino-1′-(5-(2,3-dichlorophenyl)-3-(hydroxymethyl)-6-methylpyrazin-2-yl)-1,3-dihydrospiro[indene-2,4′-piperidine]-7-carbonitrile] |
| > 1 | Cc1nc(N2CCC3(CC2)Cc2cc(NS(C)(=O)=O)ccc2[C@H]3N)c(CO)nc1-c1cccc(Cl)c1Cl [Compound 9, (S)—N-(1-amino-1′-(5-(2,3-dichlorophenyl)-3-(hydroxymethyl)-6-methylpyrazin-2-yl)-1,3-dihydrospiro[indene-2,4′-piperidin]-5-yl)methanesulfonamide] |
| > 1 | Cc1nc(N2CCC3(CC2)Cc2ccccc2[C@H]3N)c(CO)nc1-c1ccnc(N)c1Cl [Compound 10, (S)-(3-(1-amino-1,3-dihydrospiro[indene-2,4′-piperidin]-1′-yl)-6-(2-amino-3-chloropyridin-4-yl)-5-methylpyrazin-2-yl)methanol] |
| 0.405 | N[C@@H]1c2ccccc2CC12CCN(c1ncc(-c3cccc(Cl)c3Cl)nc1CO)CC2 [Compound 11, (S)-(3-(1-amino-1,3-dihydrospiro[indene-2,4′-piperidin]-1′-yl)-6-(2,3-dichlorophenyl)pyrazin-2-yl)methanol] |
| > 1 | Cc1nc(N2CCC3(CC2)Cc2ccccc2[C@H]3N)c(CO)nc1-c1cccnc1C(F)(F)F [Compound 12, (S)-(3-(1-amino-1,3-dihydrospiro[indene-2,4′-piperidin]-1′-yl)-5-methyl-6-(2-(trifluoromethyl)pyridin-3-yl)pyrazin-2-yl)methanol] |
| 0.056 | COc1ccc2c(c1)[C@@H](N)C1(CCN(c3nc(C)c(-c4cccc(Cl)c4Cl)nc3CO)CC1)C2 [Compound 14] |
| 0.59 | Cc1cccc(-c2nc(CO)c(N3CCC4(CC3)Cc3ccccc3[C@H]4N)nc2C)c1C [Compound 15] |
| 0.261 | Cc1nc(N2CCC3(CC2)Cc2ccccc2[C@H]3N)c(CO)nc1-c1ccccc1Br [Compound 16] |
| 0.464 | Cc1nc(N2CCC3(CC2)Cc2ccccc2[C@H]3N)c(CO)nc1-c1ccc2[nH]ncc2c1 [Compound 17] |
| 0.63 | Cc1nc(N2CCC3(CC2)Cc2ccccc2[C@H]3N)c(CO)nc1-c1ccc2c(cnn2C)c1 [Compound 18] |
